Source: patent publication US20240261271A1, “APPLICATION OF HYDRONIDONE IN PREPARATION OF DRUG FOR TREATING OR PREVENTING CHRONIC HEPATITIS B WITH LIVER FIBROSIS” (priority 2021, published 2024)
Where “and” joins values, the source holds several entries; their conditions need not be identical. Equal values may be shown once.

Test system: chronic hepatitis B with hepatic fibrosis
Experiment: Phase II clinical study: hepatic fibrosis Ishak score by liver biopsy, before and after 52 weeks of treatment on entecavir basic treatment
Type: in vivo, human
Details: for Ishak score 4 points, n(%) / Ishak score 5 points, n(%) / Ishak score 6 points, n(%) / Hepatic fibrosis Ishak score, Mean (SD) / Hepatic fibrosis Ishak score, Median / Ishak score 0 point, n(%) / Ishak score 1 point, n(%) / Ishak score 2 points, n(%) / Ishak score 3 points, n(%) / Progressive Ishak score (increases by ≥1 compared with the baseline) / Reversed Ishak score (decreases by ≥1 point compared with the baseline) / Stable Ishak score (unchanged compared with the baseline): 52 weeks of treatment; for Rate difference (B-C) % and 95% CI, Ishak score decreased by ≥1: 360 mg group minus 180 mg group; for Rate difference (B-C) % and 95% CI, Ishak score decreased by ≥1 / Rate difference (B-D) % and 95% CI, Ishak score decreased by ≥1 / Rate difference (A-B) % and 95% CI, Ishak score decreased by ≥1 / Rate difference (A-C) % and 95% CI, Ishak score decreased by ≥1 / Rate difference (A-D) % and 95% CI, Ishak score decreased by ≥1: 52 weeks; for Rate difference (B-D) % and 95% CI, Ishak score decreased by ≥1: 360 mg group minus 270 mg group; for Rate difference (A-C) % and 95% CI, Ishak score decreased by ≥1: placebo group minus 180 mg group; for Rate difference (A-D) % and 95% CI, Ishak score decreased by ≥1: placebo group minus 270 mg group
Method: This is a randomized, double-blind, placebo-controlled, multicenter, and dose-finding phase II clinical study with foundational treatment. In the clinical trial, three different dose test groups and a placebo control group were set on the basis of the entecavir capsule antiviral treatment, and the planned sample amount of each group was 60 cases, totaling 240 cases. The three dose test groups were 180 mg group, 270 mg group, and 360 mg group, respectively. […]

[1] = 270 mg group, PPS, baseline Ishak score ≥3
[2] = 270 mg group, PPS, all subjects
[3] = 270 mg group, PPS, screening period-follow-up 15 (52 weeks), baseline Ishak score ≥3
[4] = 360 mg group, FAS, 52 weeks of treatment vs baseline, all subjects
[5] = 360 mg group, FAS, all subjects
[6] = 360 mg group, FAS, baseline Ishak score ≥3
[7] = 360 mg group, FAS, screening period-follow-up 15 (52 weeks), baseline Ishak score ≥3
[8] = 360 mg group, PPS, 52 weeks of treatment vs baseline, all subjects
[9] = 360 mg group, PPS, all subjects
[10] = 360 mg group, PPS, baseline Ishak score ≥3
[11] = 360 mg group, PPS, screening period-follow-up 15 (52 weeks), baseline Ishak score ≥3
[12] = Group B/C/D combined, FAS, baseline Ishak score ≥2
[13] = Group B/C/D combined, FAS, screening period-follow-up 15 (52 weeks), baseline Ishak score ≥2
[14] = Group B/C/D combined, PPS, baseline Ishak score ≥2
[15] = Group B/C/D combined, PPS, screening period-follow-up 15 (52 weeks), baseline Ishak score ≥2

## Cc1ccc(=O)n(-c2ccc(O)cc2)c1 [hydronidone]
[1]
  Ishak score 4 points, n(%): 5(20.00) n(%)
  Ishak score 5 points, n(%): 5(20.00) n(%)
  Ishak score 6 points, n(%): 2(8.00) n(%)
[2]
  Ishak score change, Baseline-52 weeks of treatment, Mean (SD): 0.91(1.15)
  Ishak score change, Baseline-52 weeks of treatment, Median: 1.00
[3]
  Ishak score decreased by <1, n(%): 7(28.00) n(%)
  Ishak score decreased by ≥1, n(%): 18(72.00) n(%)
FAS, all subjects
  Rate difference (B-C) % and 95% CI, Ishak score decreased by ≥1: 3.43(−17.12, 23.60) %
  Rate difference (B-D) % and 95% CI, Ishak score decreased by ≥1: −12.20(−32.01, 9.10) %
  Rate difference (A-C) % and 95% CI, Ishak score decreased by ≥1: −14.89(−33.32, 4.99) %
  Rate difference (A-D) % and 95% CI, Ishak score decreased by ≥1: −30.52% and −30.52(−48.12, −9.50) %
FAS, baseline Ishak score ≥3
  Rate difference (B-C) % and 95% CI, Ishak score decreased by ≥1: 4.45(−20.88, 29.28) %
  Rate difference (B-D) % and 95% CI, Ishak score decreased by ≥1: −5.67(−29.01, 18.67) %
  Rate difference (A-C) % and 95% CI, Ishak score decreased by ≥1: −18.17(−42.04, 9.11) %
  Rate difference (A-D) % and 95% CI, Ishak score decreased by ≥1: −28.29(−50.04, −1.45) %
PPS, all subjects
  Rate difference (B-C) % and 95% CI, Ishak score decreased by ≥1: 5.72(−16.89, 27.53) %
  Rate difference (B-D) % and 95% CI, Ishak score decreased by ≥1: −12.77(−33.83, 9.98) %
  Rate difference (A-C) % and 95% CI, Ishak score decreased by ≥1: −21.03(−40.20, 0.26) %
  Rate difference (A-D) % and 95% CI, Ishak score decreased by ≥1: −39.52% and −39.52(−56.83, −17.26) %
PPS, baseline Ishak score ≥3
  Rate difference (B-C) % and 95% CI, Ishak score decreased by ≥1: 8.91(−17.46, 34.07) %
  Rate difference (B-D) % and 95% CI, Ishak score decreased by ≥1: −4.00(−27.91, 20.54) %
  Rate difference (A-C) % and 95% CI, Ishak score decreased by ≥1: −23.09(−46.75, 5.09) %
  Rate difference (A-D) % and 95% CI, Ishak score decreased by ≥1: −36.00(−56.89, −8.38) %
[4]
  Ishak score decreased by <1, n(%): 23(56.10) n(%)
  Ishak score decreased by ≥1, n(%): 18 (43.90%) n(%) and 18(43.90) n(%)
[5]
  Hepatic fibrosis Ishak score, Mean (SD): 2.83(1.45)
  Hepatic fibrosis Ishak score, Median: 3.00
  Ishak score 0 point, n(%): 0(0.00) n(%)
  Ishak score 1 point, n(%): 10(24.39) n(%)
  Ishak score 2 points, n(%): 8(19.51) n(%)
  Ishak score 3 points, n(%): 9(21.95) n(%)
  Ishak score 4 points, n(%): 8(19.51) n(%)
  Ishak score 5 points, n(%): 5(12.20) n(%)
  Ishak score 6 points, n(%): 1(2.44) n(%)
  Progressive Ishak score (increases by ≥1 compared with the baseline): 5 (12.20%) n(%) and 5(12.20) n(%)
  Reversed Ishak score (decreases by ≥1 point compared with the baseline): 18(43.90) n(%)
  Stable Ishak score (unchanged compared with the baseline): 18 (43.90%) n(%) and 18(43.90) n(%)
  Ishak score change, Baseline-52 weeks of treatment, Mean (SD): 0.56(1.25)
  Ishak score change, Baseline-52 weeks of treatment, Median: 0.00
[6]
  Ishak score 0 point, n(%): 0(0.00) n(%)
  Ishak score 1 point, n(%): 4(13.79) n(%)
  Ishak score 2 points, n(%): 4(13.79) n(%)
  Ishak score 3 points, n(%): 8(27.59) n(%)
  Ishak score 4 points, n(%): 7(24.14) n(%)
  Ishak score 5 points, n(%): 5(17.24) n(%)
  Ishak score 6 points, n(%): 1(3.45) n(%)
[7]
  Ishak score decreased by <1, n(%): 12(41.38) n(%)
  Ishak score decreased by ≥1, n(%): 17(58.62) n(%)
[8]
  Ishak score decreased by <1, n(%): 16(47.06) n(%)
  Ishak score decreased by ≥1, n(%): 18 (52.94%) n(%) and 18(52.94) n(%)
[9]
  Hepatic fibrosis Ishak score, Mean (SD): 2.82(1.49)
  Hepatic fibrosis Ishak score, Median: 3.00
  Ishak score 0 point, n(%): 0(0.00) n(%)
  Ishak score 1 point, n(%): 9(26.47) n(%)
  Ishak score 2 points, n(%): 6(17.65) n(%)
  Ishak score 3 points, n(%): 7(20.59) n(%)
  Ishak score 4 points, n(%): 7(20.59) n(%)
  Ishak score 5 points, n(%): 4(11.76) n(%)
  Ishak score 6 points, n(%): 1(2.94) n(%)
  Progressive Ishak score (increases by ≥1 compared with the baseline): 5 (14.71%) n(%) and 5(14.71) n(%)
  Reversed Ishak score (decreases by ≥1 point compared with the baseline): 18(52.94) n(%)
  Stable Ishak score (unchanged compared with the baseline): 11 (32.35%) n(%) and 11(32.35) n(%)
  Ishak score change, Baseline-52 weeks of treatment, Mean (SD): 0.68(1.34)
  Ishak score change, Baseline-52 weeks of treatment, Median: 1.00
[10]
  Ishak score 0 point, n(%): 0(0.00) n(%)
  Ishak score 1 point, n(%): 4(16.00) n(%)
  Ishak score 2 points, n(%): 4(16.00) n(%)
  Ishak score 3 points, n(%): 6(24.00) n(%)
  Ishak score 4 points, n(%): 6(24.00) n(%)
  Ishak score 5 points, n(%): 4(16.00) n(%)
  Ishak score 6 points, n(%): 1(4.00) n(%)
[11]
  Ishak score decreased by <1, n(%): 8(32.00) n(%)
  Ishak score decreased by ≥1, n(%): 17(68.00) n(%)
Group A vs Group B/C/D combined, FAS, baseline Ishak score ≥2
  Rate difference (A-B) % and 95% CI, Ishak score decreased by ≥1: −24.09(−40.50, −4.45) %
Group A vs Group B/C/D combined, PPS, baseline Ishak score ≥2
  Rate difference (A-B) % and 95% CI, Ishak score decreased by ≥1: −32.29(−48.91, −12.08) %
[12]
  Ishak score 0 point, n(%): 5(4.95) n(%)
  Ishak score 1 point, n(%): 20(19.80) n(%)
  Ishak score 2 points, n(%): 17(16.83) n(%)
  Ishak score 3 points, n(%): 18(17.82) n(%)
  Ishak score 4 points, n(%): 17(16.83) n(%)
  Ishak score 5 points, n(%): 17(16.83) n(%)
  Ishak score 6 points, n(%): 7(6.93) n(%)
[13]
  Ishak score decreased by <1, n(%): 43(42.57) n(%)
  Ishak score decreased by ≥1, n(%): 58(57.43) n(%)
[14]
  Ishak score 0 point, n(%): 5(5.75) n(%)
  Ishak score 1 point, n(%): 20(22.99) n(%)
  Ishak score 2 points, n(%): 12(13.79) n(%)
  Ishak score 3 points, n(%): 14(16.09) n(%)
  Ishak score 4 points, n(%): 16(18.39) n(%)
  Ishak score 5 points, n(%): 14(16.09) n(%)
  Ishak score 6 points, n(%): 6(6.90) n(%)
[15]
  Ishak score decreased by <1, n(%): 29(33.33) n(%)
  Ishak score decreased by ≥1, n(%): 58(66.67) n(%)
Placebo group minus 360 mg group, FAS, all subjects
  Rate difference (A-B) % and 95% CI, Ishak score decreased by ≥1: −18.32(−36.76, 1.96) %
Placebo group minus 360 mg group, FAS, baseline Ishak score ≥3
  Rate difference (A-B) % and 95% CI, Ishak score decreased by ≥1: −22.62(−44.98, 3.82) %
Placebo group minus 360 mg group, PPS, all subjects
  Rate difference (A-B) % and 95% CI, Ishak score decreased by ≥1: −26.75% and −26.75(−45.78, −4.75) %
Placebo group minus 360 mg group, PPS, baseline Ishak score ≥3
  Rate difference (A-B) % and 95% CI, Ishak score decreased by ≥1: −32.00(−53.61, −4.37) %
Placebo group vs 270 mg group + 360 mg group, FAS, baseline Ishak score = 6
  Rate difference (A-B) % and 95% CI, Ishak score decreased by ≥1: −65.00(−87.03, −10.74) %
Placebo group vs 270 mg group + 360 mg group, FAS, baseline Ishak score ≥3
  Rate difference (A-B) % and 95% CI, Ishak score decreased by ≥1: −25.40(−44.93, −2.00) %
Placebo group vs 270 mg group + 360 mg group, FAS, baseline Ishak score ≥4
  Rate difference (A-B) % and 95% CI, Ishak score decreased by ≥1: −23.80(−46.21, 2.59) %
Placebo group vs 270 mg group + 360 mg group, FAS, baseline Ishak score ≥5
  Rate difference (A-B) % and 95% CI, Ishak score decreased by ≥1: −15.38(−42.13, 13.79) %
Placebo group vs 270 mg group + 360 mg group, PPS, baseline Ishak score = 6
  Rate difference (A-B) % and 95% CI, Ishak score decreased by ≥1: −65.00(−87.03, −10.74) %
Placebo group vs 270 mg group + 360 mg group, PPS, baseline Ishak score ≥3
  Rate difference (A-B) % and 95% CI, Ishak score decreased by ≥1: −34.00(−53.15, −10.15) %
Placebo group vs 270 mg group + 360 mg group, PPS, baseline Ishak score ≥4
  Rate difference (A-B) % and 95% CI, Ishak score decreased by ≥1: −30.06(−51.94, −3.18) %
Placebo group vs 270 mg group + 360 mg group, PPS, baseline Ishak score ≥5
  Rate difference (A-B) % and 95% CI, Ishak score decreased by ≥1: −20.83(−47.05, 8.90) %
